Results from patent publication US20160091487A1, “ENGINEERING INDIVIDUALLY ADDRESSABLE CELLULAR SPHEROIDS USING AQUEOUS TWO-PHASE SYSTEMS” (priority 2012, published 2016).

Test system: MDA-MB-157 spheroids
Assay: Viability of ATPS-generated cancer cell spheroids treated with cisplatin (PRESTO BLUE enzymatic assay)
Type: cell-based
Conditions: cisplatin 25 to 200 μM, four days incubation
Source text: Component 1 contains 5%(w/w) polyethylene glycol (PEG, Mw: 35,000) and component 2 contains 12.8%(w/w) Dextran (DEX, Mw: 500,000). […] First, the PEG phase is loaded into wells of a well plate (destination plate) and this plate is placed on the work surface of a robotic liquid handler (FIG. 2). Then cells are harvested from a culture dish, mixed with the DEX phase at a 1:1 volumetric ratio to reduce DEX concentration to 6.4% (w/w), and loaded into a second plate (source plate). This plate is also placed on the work surface of the liquid handler. Pipette tips are mounted onto the dispense head of the liquid handler (FIG. 3) and are immersed into the source plate to load a defined volume (˜0.3 microliters) of the cell suspension in DEX phase. After retraction from the source plate, pipette tips are lowered into the destination plate and dispense their content. Dispensed solution forms a single droplet containing cells in each well and the droplet remains immiscible from its surrounding PEG phase (FIG. 4a). Cells aggregate and form an individual spheroid in each well (FIG. 4b and FIG. 5). […] The drug, diluted with culture media, was renewed once by the addition of 50 μL after two days of incubation.

Compound: N.N.[Cl][Pt][Cl] [cisplatin]
- percent viability trend against drug concentration: gradual decrease as the cisplatin concentration increases
